What was measured:
[1] = system: Human immunodeficiency virus 1; test: In vitro anti-HIV-1 activity in CEM-SS cytoprotection assay; No activity.; type: functional, organism-based
[2] = system: CEM-SS; test: In vitro cytotoxicity in CEM-SS cell line up to a concentration of 100 uM.; type: functional, cell-based; details: Homo sapiens

Row | EC50 [1] | SMILES | IC50 [2] [µM]
1 | Not Active | COc1cc(C)cc2c(-c3ccc4c(c3)OCO4)cc(-c3cc(-c4ccc5c(c4)OCO5)c4cc(C)cc(OC)c4c3O)c(O)c12 | > 100
2 | Not Active | COc1cccc2c(-c3ccc(O)cc3O)cc(-c3cc(-c4ccc(O)cc4O)c4cccc(OC)c4c3O)c(O)c12 | 2.2
3 | Not Active | COc1cc(OC)c2c(O)c(-c3cc(-c4cccc([N+](=O)[O-])c4)c4cc(OC)cc(OC)c4c3O)cc(-c3cccc([N+](=O)[O-])c3)c2c1 | > 100
4 | Not Active | COc1cc(OC)c2c(O)c(-c3cc(-c4cccc(N)c4)c4cc(OC)cc(OC)c4c3O)cc(-c3cccc(N)c3)c2c1 | > 100
5 | Not Active | COc1cc(C)cc2c(-c3cccc(N)c3)cc(-c3cc(-c4cccc(N)c4)c4cc(C)cc(OC)c4c3O)c(O)c12 | > 100
6 | Not Active | COc1cc(C)cc2c(-c3ccccc3)cc(-c3cc(-c4ccccc4)c4cc(C)cc(OC)c4c3O)c(O)c12 | > 100

The next lines start with the compound.

Row | SMILES | EC50 [1] | IC50 [2] [µM]
7 | COc1cccc2c(-c3ccccc3)cc(-c3cc(-c4ccccc4)c4cccc(OC)c4c3O)c(O)c12 | Not Active | > 100
8 | COc1cc(OC)c2c(O)c(-c3cc(-c4ccc(O)cc4O)c4cc(OC)cc(OC)c4c3O)cc(-c3ccc(O)cc3O)c2c1 | Not Active | 3.9
9 | COc1cc(OC)c2c(O)c(-c3cc(-c4ccc5c(c4)OCO5)c4cc(OC)cc(OC)c4c3O)cc(-c3ccc4c(c3)OCO4)c2c1 | Not Active | > 100
10 | COc1cccc2c(-c3cccc(N)c3)cc(-c3cc(-c4cccc(N)c4)c4cccc(OC)c4c3O)c(O)c12 | Not Active | > 100
11 | COc1cccc2c(-c3cccc([N+](=O)[O-])c3)cc(-c3cc(-c4cccc([N+](=O)[O-])c4)c4cccc(OC)c4c3O)c(O)c12 | Not Active | > 100
12 | COc1cc(C)cc2c(-c3cccs3)cc(-c3cc(-c4cccs4)c4cc(C)cc(OC)c4c3O)c(O)c12 | Not Active | > 100
13 | COc1cc(C)cc2c(-c3ccc(O)cc3O)cc(-c3cc(-c4ccc(O)cc4O)c4cc(C)cc(OC)c4c3O)c(O)c12 | Not Active | 2.6
14 | COc1cccc2c(-c3ccc4c(c3)OCO4)cc(-c3cc(-c4ccc5c(c4)OCO5)c4cccc(OC)c4c3O)c(O)c12 | Not Active | > 100
15 | COc1cccc2c(-c3cccs3)cc(-c3cc(-c4cccs4)c4cccc(OC)c4c3O)c(O)c12 | Not Active | > 100
16 | COc1cc(C)cc2c(-c3cccc([N+](=O)[O-])c3)cc(-c3cc(-c4cccc([N+](=O)[O-])c4)c4cc(C)cc(OC)c4c3O)c(O)c12 | Not Active | > 100
17 | COc1cc(OC)c2c(O)c(-c3cc(-c4ccccc4)c4cc(OC)cc(OC)c4c3O)cc(-c3ccccc3)c2c1 | Not Active | > 100
18 | COc1cc(OC)c2c(O)c(-c3cc(-c4cccs4)c4cc(OC)cc(OC)c4c3O)cc(-c3cccs3)c2c1 | Not Active | > 100

— ChEMBL document CHEMBL1151997, “Structural analogues of the michellamine anti-HIV agents. Importance of the tetrahydroisoquinoline rings for biological activity” (Bioorg Med Chem Lett, 1997)
